Consider 20 compounds from patent US11034699B2, “Ethynyl derivatives” (Hoffmann-La Roche Inc., priority 2015, dated 2021).

Structures are written as SMILES.

Test [1] deals with mice. As to conditions: mice treated with MPTP; cited from earlier work.
Test [2] relates to mice. The note with it: cited from earlier work.
The next test deals with rats. As to conditions: cited from earlier work.
The test system of test [3] is mice. The note with it: cited from earlier work. The source holds these as a separate data set.
For a further test, the target named is human mGlu4 receptor (Homo sapiens (Human), UniProt Q14833). As to the kind of experiment: Ca2+ mobilization in vitro assay on recombinant human mGlu4 expressed in HEK293 cells (PAM). As to conditions: for Emax: HEK293, maximal response in % of maximal stimulatory effect of saturating L-AP4, read-out: Eff. (%); for EC50: HEK293 cells, human mGlu4, L-AP4 at EC20. It is filed as cell-based. The protocol: Determination of EC50 Values Using a Ca2+ Mobilization In Vitro Assay on Recombinant Human mGlu4 Expressed in HEK293 Cells:
A monoclonal HEK-293 cell line stably transfected with a cDNA encoding for the human mGlu4 receptor was generated; for the work with mGlu4 Positive Allosteric Modulators (PAMs), a cell line with low receptor expression levels and low constitutive receptor activity was selected to allow the differentiation of agonistic versus PAM activity. Cells were cultured according to standard protocols (Freshney, 2000) in Dulbecco's Modified Eagle Medium with high glucose supplemented with 1 mM glutamine, 10% (vol/vol) heat-inactivated bovine calf serum, Penicillin/Streptomycin, 50 μg/ml hygromycin and 15 μg/ml blasticidin (all cell culture reagents and antibiotics from Invitrogen, Basel, Switzerland).
About 24 hrs before an experiment, 5×10^4 cells/well were seeded in poly-D-lysine coated, black/clear-bottomed 96-well plates. The cells were loaded with 2.5 μM Fluo-4AM in loading buffer (1×HBSS, 20 mM HEPES) for 1 hr at 37° C. and washed five times with loading buffer. The cells were transferred into a Functional Drug Screening System 7000 (Hamamatsu, Paris, France), and 11 half logarithmic serial dilutions of test compound at 37° C. were added and the cells were incubated for 10-30 min. with on-line recording of fluorescence. Following this pre-incubation step, the agonist (2S)-2-amino-4-phosphonobutanoic acid (L-AP4) was added to the cells at a concentration corresponding to EC20 with on-line recording of fluorescence; in order to account for day-to-day variations in the responsiveness of cells, the EC20 of L-AP4 was determined immediately ahead of each experiment by recording of a full dose-response curve of L-AP4.
Responses were measured as peak increase in fluorescence minus basal (i.e. fluorescence without addition of L-AP4), normalized to the maximal stimulatory effect obtained with saturating concentrations of L-AP4. Graphs were plotted with the % maximal stimulatory using XLfit, a curve fitting program that iteratively plots the data using Levenburg Marquardt algorithm. The single site competition analysis equation used was y=A+((B−A)/(1+((x/C)D))), where y is the % maximal stimulatory effect, A is the minimum y, B is the maximum y, C is the EC50, x is the log 10 of the concentration of the competing compound and D is the slope of the curve (the Hill Coefficient). From these curves the EC50 (drug concentration at which 50% of the maximal receptor activation was achieved), the Hill coefficient as well as the maximal response in % of the maximal stimulatory effect obtained with saturating concentrations of L-AP4 were calculated (see FIG. 1).
A depression of the signal observed after addition of the EC20 concentration of L-AP4 was indicative of an inhibitory activity of the test compound.
(A change in cytosolic calcium serves as a functional read-out for many receptors and channels.)

A further test has as its system rodent. The note with it: 6-OHDA rodent model of PD; cited from earlier work.

Sequence of human mGlu4 receptor (Q14833 33-912): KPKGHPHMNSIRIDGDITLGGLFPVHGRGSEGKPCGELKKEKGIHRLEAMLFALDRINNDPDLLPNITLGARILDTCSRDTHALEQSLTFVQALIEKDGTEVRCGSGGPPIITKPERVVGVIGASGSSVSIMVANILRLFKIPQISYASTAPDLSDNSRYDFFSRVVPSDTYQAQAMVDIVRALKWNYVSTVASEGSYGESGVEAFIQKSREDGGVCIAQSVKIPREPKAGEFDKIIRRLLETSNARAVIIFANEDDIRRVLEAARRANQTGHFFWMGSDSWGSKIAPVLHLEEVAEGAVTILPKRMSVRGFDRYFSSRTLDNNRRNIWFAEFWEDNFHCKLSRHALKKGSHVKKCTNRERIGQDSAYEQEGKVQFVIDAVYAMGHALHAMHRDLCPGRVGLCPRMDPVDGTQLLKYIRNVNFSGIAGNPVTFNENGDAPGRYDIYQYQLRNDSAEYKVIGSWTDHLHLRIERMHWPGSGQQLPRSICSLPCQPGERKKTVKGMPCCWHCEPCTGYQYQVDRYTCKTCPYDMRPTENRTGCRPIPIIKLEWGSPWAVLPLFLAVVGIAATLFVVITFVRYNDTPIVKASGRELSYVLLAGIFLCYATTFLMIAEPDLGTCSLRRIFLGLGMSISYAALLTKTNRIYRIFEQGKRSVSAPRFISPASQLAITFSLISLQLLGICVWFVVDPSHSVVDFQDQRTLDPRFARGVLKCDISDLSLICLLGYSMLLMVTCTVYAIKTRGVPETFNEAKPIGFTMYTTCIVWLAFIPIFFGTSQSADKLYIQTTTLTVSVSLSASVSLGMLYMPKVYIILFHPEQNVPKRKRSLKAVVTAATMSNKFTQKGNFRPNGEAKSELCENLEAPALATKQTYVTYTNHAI

Consider `O=C(Nc1ccccc1)C12CC1/C(=N\O)c1ccccc1O2` (single isomer, unassigned; (-)) [(−)-PHCCC], for which the nigrostriatal degeneration result in the test with mice [1] was “reduced nigrostriatal degeneration”.
In the case of `Cc1ccnc(Nc2nc(-c3cn[nH]c3)c(C)s2)n1` [ADX88178], the “activity in EPM” value in the test on mice [2] and in the test with rats (rats) was “active” throughout. Besides, the “profile in the rat EPM test” value in the test on rats (rat, after oral dosing) is “anxiolytic-like profile”. For the same compound, the “activity in marble burying test” value in the test on mice [3] was “active”.
Take `CN1C(=O)N(c2c(F)cc(C#Cc3ccccc3)cc2F)C(=O)C[C@]12CCCc1ccncc12` [Example 1, (8S)-3′-[2,6-Difluoro-4-(2-phenylethynyl)phenyl]-1′-methyl-spiro[6,7-dihydro-5H-isoquinoline-8,6′-hexahydropyrimidine]-2′,4′-dione]: at human mGlu4 receptor, the Emax stood at 101% and the EC50 was 58 nM.
In the case of `CN1C(=O)N(c2c(F)cc(C#Cc3cccnc3)cc2F)C(=O)C[C@]12CCCc1ccccc12` [Example 2, (6S)-3-[2,6-Difluoro-4-[2-(3-pyridyl)ethynyl]phenyl]-1-methyl-spiro[hexahydropyrimidine-6,1′-tetralin]-2,4-dione], at human mGlu4 receptor, the Emax was 101% and the EC50 came to 52 nM.
As to `CN1C(=O)N(c2c(F)cc(C#Cc3cccnc3)cc2F)C(=O)C[C@]12CCc1ccccc12` [Example 3, (6S)-3-[2,6-Difluoro-4-[2-(3-pyridyl)ethynyl]phenyl]-1-methyl-spiro[hexahydropyrimidine-6,1′-indane]-2,4-dione], at human mGlu4 receptor, the Emax came out at 94% and the EC50 is 61 nM.
Taken in the same sequence, the figures for `CN1C(=O)N(c2c(F)cc(C#Cc3ccccc3)cc2F)C(=O)C[C@]12CCc1ncccc12` [Example 4, (5S)-3′-[2,6-Difluoro-4-(2-phenylethynyl)phenyl]-1′-methyl-spiro[6,7-dihydrocyclopenta[b]pyridine-5,6′-hexahydropyrimidine]-2′,4′-dione] were 115% and 94 nM.
Taken in the same sequence, the figures for `CN1C(=O)N(c2c(F)cc(C#Cc3ccccc3)cc2F)C(=O)C[C@]12CCCc1ncccc12` [Example 5, (5S)-3′-[2,6-Difluoro-4-(2-phenylethynyl)phenyl]-1′-methyl-spiro[7,8-dihydro-6H-quinoline-5,6′-hexahydropyrimidine]-2′,4′-dione] were 121% and 76 nM.
Take `CN1C(=O)N(c2c(F)cc(C#Cc3ccccc3)cc2F)C(=O)C[C@]12CCCc1cnccc12` [Example 6, (5S)-3′-[2,6-Difluoro-4-(2-phenylethynyl)phenyl]-1′-methyl-spiro[7,8-dihydro-6H-isoquinoline-5,6′-hexahydropyrimidine]-2′,4′-dione]: at human mGlu4 receptor, the Emax came to 115% and the EC50 came to 65 nM.
On to `CN1C(=O)N(c2c(F)cc(C#Cc3ccccc3)cc2F)C(=O)C[C@]12CCCc1ncncc12` [Example 7, (5S)-3′-[2,6-Difluoro-4-(2-phenylethynyl)phenyl]-1′-methyl-spiro[7,8-dihydro-6H-quinazoline-5,6′-hexahydropyrimidine]-2′,4′-dione], for which, on human mGlu4 receptor, the Emax was 115% and the EC50 was found to be 65 nM.
For the compound `CN1C(=O)N(c2c(F)cc(C#Cc3cccnc3)cc2F)C(=O)C[C@]12CCOc1ccccc12` [Example 8, (4S)-3′-[2,6-Difluoro-4-[2-(3-pyridyl)ethynyl]phenyl]-1′-methyl-spiro[chromane-4,6′-hexahydropyrimidine]-2′,4′-dione], on human mGlu4 receptor, the Emax was determined as 145% and the EC50 worked out at 88 nM.
As for `CN1C(=O)N(c2c(F)cc(C#Cc3ccccc3)cc2F)C(=O)C[C@]12CCOc1ncccc12` [Example 9, (4S)-3′-[2,6-Difluoro-4-(2-phenylethynyl)phenyl]-1′-methyl-spiro[2,3-dihydropyrano[2,3-b]pyridine-4,6′-hexahydropyrimidine]-2′,4′-dione], at human mGlu4 receptor, the Emax worked out at 124% and the 50% effective concentration (EC50) turned out to be 51 nM.
For the compound `CN1C(=O)N(c2c(F)cc(C#Cc3cccnc3)cc2F)C(=O)C[C@]12COCc1ccccc12` [Example 10, (6S)-3-[2,6-Difluoro-4-[2-(3-pyridyl)ethynyl]phenyl]-1-methyl-spiro[hexahydropyrimidine-6,4′-isochromane]-2,4-dione], at human mGlu4 receptor, the Emax turned out to be 118% and the EC50 amounted to 43 nM.
Taken in the same sequence, the figures for `CCN1C(=O)N(c2c(F)cc(C#Cc3ccccc3)cc2F)C(=O)C[C@]12CCCc1ccncc12` [Example 11, (8S)-3′-[2,6-Difluoro-4-(2-phenylethynyl)phenyl]-1′-ethyl-spiro[6,7-dihydro-5H-isoquinoline-8,6′-hexahydropyrimidine]-2′,4′-dione] were 130% and 114 nM.
In the case of `CN1C(=O)N(c2c(F)cc(C#Cc3ccccc3)cc2F)C(=O)C[C@]12CCCc1[nH]ncc12` [Example 12, (4S)-3′-[2,6-Difluoro-4-(2-phenylethynyl)phenyl]-1′-methyl-spiro[1,5,6,7-tetrahydroindazole-4,6′-hexahydropyrimidine]-2′,4′-dione], on human mGlu4 receptor, the Emax came to 152% and the EC50 was found to be 51 nM.
Taken in the same sequence, the figures for `CN1C(=O)N(c2c(F)cc(C#Cc3ccccc3)cc2F)C(=O)C[C@]12CCCc1nn(C)cc12` [Example 13, (4S)-3′-[2,6-Difluoro-4-(2-phenylethynyl)phenyl]-1′,2-dimethyl-spiro[6,7-dihydro-5H-indazole-4,6′-hexahydropyrimidine]-2′,4′-dione] were 165% and 39 nM.
Consider `CN1C(=O)N(c2c(F)cc(C#Cc3ccccc3)cc2F)C(=O)C[C@]12CCCc1c2cnn1C` [Example 14, (4S)-3′-[2,6-Difluoro-4-(2-phenylethynyl)phenyl]-1,1′-dimethyl-spiro[6,7-dihydro-5H-indazole-4,6′-hexahydropyrimidine]-2′,4′-dione], for which, on human mGlu4 receptor, the Emax came to 151% and the EC50 is 75 nM.
Taken in the same sequence, the figures for `CN1C(=O)N(c2c(F)cc(C#Cc3ccccc3)cc2F)C(=O)C[C@]12CCCCc1[nH]ncc12` [Example 15, (4S)-3′-[2,6-Difluoro-4-(2-phenylethynyl)phenyl]-1′-methyl-spiro[5,6,7,8-tetrahydro-1H-cyclohepta[c]pyrazole-4,6′-hexahydropyrimidine]-2′,4′-dione] were 133% and 54 nM.
Taken in the same sequence, the figures for `CN1C(=O)N(c2c(F)cc(C#Cc3ccccc3)cc2F)C(=O)C[C@]12CCCCc1c2cnn1C` [Example 16, (4S)-3′-[2,6-Difluoro-4-(2-phenylethynyl)phenyl]-1,1′-dimethyl-spiro[5,6,7,8-tetrahydrocyclohepta[c]pyrazole-4,6′-hexahydropyrimidine]-2′,4′-dione] were 137% and 34 nM.
As for `CN1C(=O)N(c2c(F)cc(C#Cc3ccccc3)cc2F)C(=O)C[C@]12CCCCc1nn(C)cc12` [Example 17, (4S)-3′-[2,6-Difluoro-4-(2-phenylethynyl)phenyl]-1′,2-dimethyl-spiro[5,6,7,8-tetrahydrocyclohepta[c]pyrazole-4,6′-hexahydropyrimidine]-2′,4′-dione], on human mGlu4 receptor, the Emax came out at 131% and the EC50 was 39 nM.
Turning to `N[C@@H](CCP(=O)(O)O)C(=O)O` [L-AP4, (2S)-2-amino-4-phosphonobutanoic acid], the neuroprotective effects result with rodent is given as “neuroprotective effects”.

Broadly, the EC50 is the concentration needed to bring the measured effect to its halfway point.
